Data from patent US20130189352A1 (ZHEJIANG UNIVERSITY, priority 2011, published 2013).
In brackets after ≈: the same amount, converted by molar mass. Like-named read-outs stand apart in the source and are kept apart here.

How the values were obtained:
[1] = test system: human breast cancer cells (MCF-7); test: MTT cytotoxicity test, MCF-7; format: cell-based; conditions: read-out: IC50 MCF-7
Protocol: (§1) The cells suspension solution was seeded in 96-well plates with 100 μL solution per well containing 5000-10000 cells. […] The drug-loaded liposomes and doxorubicin were separately solved in saline solutions. […] These different formulations were added 25 μl per well in increasing concentrations to the wells of the 96-well plate. The cells were allowed to grow for 24 hours before adding 31.5 μl MTT (5 mg/mL) per well. Finally, about 4 hours later, all of the culture medium was removed and the precipitates were dissolved in 200 μl dimethyl sulfoxide (DMSO). […] The above tests were repeated three times for each group and each concentration has four wells. […] The IC50 values were calculated by IC50.exe software.

[2] = cited from earlier work
[3] = test system: doxorubicin-resistant human breast cancer MCF-7 (MCF-7/ADR); test: MTT cytotoxicity test, MCF-7/ADR; format: cell-based; conditions: NCI/ADR-RES, read-out: IC50 MCF-7/ADR
Protocol: as §1

[4] = test system: human promyelocytic leukemia cells (HL60); test: MTT cytotoxicity test, HL60; format: cell-based; conditions: read-out: IC50 HL60
Protocol: as §1

[5] = test system: doxorubicin-resistance human promyelocytic leukemia cell (HL60/ADR); test: MTT cytotoxicity test, HL60/ADR; format: cell-based; conditions: read-out: IC50 HL60/ADR
Protocol: as §1

[6] = MTT, 24 hours drug exposure, concentrations based on the amount of doxorubicin

SMILES | IC50 ([1]; MCF7, MTT, 24 hours drug exposure, concentrations based on the amount of doxorubicin) [µg/mL] | PKa [2] | IC50 [3, 6] [µg/mL] | IC50 ([4]; HL-60, MTT, 24 hours drug exposure, concentrations based on the amount of doxorubicin) [µg/mL] | IC50 [5, 6] [µg/mL] | IC50 ([1]; MCF7, 24 h) [µg/mL] | IC50 ([3]; 24 h) [µg/mL] | IC50 ([4]; HL-60, 24 h) [µg/mL] | IC50 ([5]; 24 h) [µg/mL]
COc1cccc2c1C(=O)c1c(O)c3c(c(O)c1C2=O)C[C@@](O)(C(=O)CO)C[C@@H]3O[C@H]1C[C@H](N)[C@H](O)[C@H](C)O1 [Control 1, doxorubicin] | 0.4 (≈ 0.736 µM) | 4.0 | 15.7 (≈ 28.9 µM) | 0.4 (≈ 0.736 µM) | 13.6 (≈ 25 µM) |  |  |  | 
CCN(CC)CCCC(C)Nc1ccnc2cc(Cl)ccc12 (stereo not drawn) [Control 2, chloroquine] |  |  |  |  |  | 18.1 (≈ 56.6 µM) | 23.3 (≈ 72.8 µM) | 17.3 (≈ 54.1 µM) | 11.2 (≈ 35 µM)
